The values below come from PubChem BioAssay AID330 (DTP/NCI, 2004).

For the assay, the system named is P388 leukemia ip, CD2F1 mice, survival T/C. Description: NCI In Vivo Anticancer Drug Screen. Data for tumor model P388 Leukemia (intraperitoneal) in CD2F1 (CDF1) mice. To be noted: endpoint: median survival time, higher = longer survival. In short, it runs like this: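 Mice carrying the transplanted tumor received test compound or vehicle. Survival was recorded in each group, and the value is the treated-group measurement divided by that of the vehicle-treated control group.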

[1] abbreviates: dose: 25.0 mg/kg/injection, schedule: Q01DX005 (ip), vehicle: saline with Tween-80.
The mark [2] stands for this setting: dose: 50.0 mg/kg/injection, schedule: Q01DX005 (ip), vehicle: saline with Tween-80.
Setting [3] is: dose: 100.0 mg/kg/injection, schedule: Q01DX005 (ip), vehicle: saline with Tween-80.
Where [4] appears, read: dose: 200.0 mg/kg/injection, schedule: Q01DX005 (ip), vehicle: saline with Tween-80.
[5] abbreviates: dose: 50.0 mg/kg/injection, schedule: Q01DX009 (ip), vehicle: Klucel (hydroxypropylcellulose) (HPC).
The mark [6] stands for this setting: dose: 100.0 mg/kg/injection, schedule: Q01DX009 (ip), vehicle: Klucel (hydroxypropylcellulose) (HPC).
Setting [7] is: dose: 60.0 mg/kg/injection, schedule: Q01DX005 (ip), vehicle: Klucel (hydroxypropylcellulose) (HPC).
Setting [8] is: dose: 120.0 mg/kg/injection, schedule: Q01DX005 (ip), vehicle: Klucel (hydroxypropylcellulose) (HPC).
Where [9] appears, read: dose: 240.0 mg/kg/injection, schedule: Q01DX005 (ip), vehicle: Klucel (hydroxypropylcellulose) (HPC).
Setting [10] is: dose: 50.0 mg/kg/injection, schedule: Q01DX005 (ip), vehicle: Klucel (hydroxypropylcellulose) (HPC).
[11] abbreviates: dose: 100.0 mg/kg/injection, schedule: Q01DX005 (ip), vehicle: Klucel (hydroxypropylcellulose) (HPC).
Setting [12] is: dose: 200.0 mg/kg/injection, schedule: Q01DX005 (ip), vehicle: Klucel (hydroxypropylcellulose) (HPC).

Where “and” joins values, the source holds several entries; their conditions need not be identical. Equal values may be shown once. Inconclusive results and toxic doses are left out.

Regarding `NC(CC(=O)O)CC(=O)O`, the T/C reads like this: under setting [1], 93 % of control; under setting [2], 95 % of control; under setting [3], 98 % of control; under setting [4], 90 % of control; (dose: 400.0 mg/kg/injection, schedule: Q01DX005 (ip), vehicle: saline with Tween-80) 89 % of control.
On to `CCCCN(CCCC)C(Cl)=NCCC`, for which the T/C was 94 % of control under setting [5] and 93 % of control under setting [6].
With `CCCCOC(=O)NC(=O)c1cc2cc(Cl)ccc2oc1=O`, the T/C reads like this: under setting [2], 95 % of control; under setting [3], 88 % of control.
For `O=c1oc2c(c(N(c3ccccc3)c3ccccc3)c1Cl)Cc1ccccc1CC2`, the T/C (dose: 50.0 mg/kg/injection, schedule: Q04DX003 (ip), vehicle: Klucel (hydroxypropylcellulose) (HPC)) was 95 % of control; the T/C (dose: 100.0 mg/kg/injection, schedule: Q04DX003 (ip), vehicle: Klucel (hydroxypropylcellulose) (HPC)) was 92 % of control; the T/C (dose: 200.0 mg/kg/injection, schedule: Q04DX003 (ip), vehicle: Klucel (hydroxypropylcellulose) (HPC)) was 91 % of control.
In the case of `S=C1SCCCN1Cc1ccc(Cl)cc1`, the T/C was 95 % of control under setting [5]; 104 % of control under setting [6]; 107 % of control (dose: 200.0 mg/kg/injection, schedule: Q01DX009 (ip), vehicle: Klucel (hydroxypropylcellulose) (HPC)).
For `CC(C)(C)c1ccc(OCCSCCOc2ccc(C(C)(C)C)cc2)cc1`, the T/C was 90 % of control (dose: 50.0 mg/kg/injection, schedule: Q01DX009 (ip), vehicle: saline with Tween-80); 90 % of control (dose: 100.0 mg/kg/injection, schedule: Q01DX009 (ip), vehicle: saline with Tween-80); 90 % of control (dose: 200.0 mg/kg/injection, schedule: Q01DX009 (ip), vehicle: saline with Tween-80).
For the molecule `COc1cccc2c(=O)cc(-c3ccccc3)sc12`, the T/C is, setting by setting: under setting [7], 98 % of control; under setting [8], 97 % of control; under setting [9], 90 % of control.
As for `CCc1nc(-c2ccccc2)nc2c1nc(-c1ccccc1)n2Nc1ccccc1`, the T/C was 90 % of control under setting [2], 96 % of control under setting [3] and 91 % of control under setting [4].
Turning to `C=CCC1(CCC#N)C(=O)CC(C)(C)CC1=O`, the T/C by setting is: (dose: 100.0 mg/kg/injection, schedule: Q04DX003 (ip), vehicle: saline) 104 % of control; (dose: 200.0 mg/kg/injection, schedule: Q04DX003 (ip), vehicle: saline) 99 % of control; (dose: 400.0 mg/kg/injection, schedule: Q04DX003 (ip), vehicle: saline) 98 % of control.
For `COc1cc2c(cc1OC)C1Cc3ccc(OC)c(OC)c3CN1CC2` (configuration not stated), the T/C (dose: 50.0 mg/kg/injection, schedule: Q01DX009 (ip), vehicle: saline) was 104 % of control; the T/C under setting [7] is 100 % of control; the T/C (dose: 100.0 mg/kg/injection, schedule: Q01DX009 (ip), vehicle: saline) was 101 % of control; the T/C under setting [8] is 109 % of control; the T/C (dose: 200.0 mg/kg/injection, schedule: Q01DX009 (ip), vehicle: saline) was 99 % of control; the T/C under setting [9] is 108 % of control.
With `Cc1ccc(S(=O)(=O)NC(CN(CC(=O)O)N=O)C(=O)O)cc1` (configuration not stated), the T/C reads like this: under setting [10], 97 % of control; under setting [11], 96 % of control; under setting [12], 98 % of control.
For the molecule `Nc1c(S(=O)(=O)O)cc(Nc2cccc(S(=O)(=O)/C=C/S(=O)(=O)O)c2)c2c1C(=O)c1ccccc1C2=O`, the T/C (dose: 60.0 mg/kg/injection, schedule: Q01DX005 (ip), vehicle: saline) is 99 % of control; the T/C (dose: 120.0 mg/kg/injection, schedule: Q01DX005 (ip), vehicle: saline) is 104 % of control; the T/C (dose: 240.0 mg/kg/injection, schedule: Q01DX005 (ip), vehicle: saline) is 111 % of control.
Turning to `Cn1cnc2ncnc(NCc3ccccc3Cl)c21`, the T/C reads like this: (dose: 6.25 mg/kg/injection, schedule: Q04DX003 (ip), vehicle: saline with Tween-80) 93 % of control; (dose: 12.5 mg/kg/injection, schedule: Q04DX003 (ip), vehicle: saline with Tween-80) 94 % of control; (dose: 25.0 mg/kg/injection, schedule: Q04DX003 (ip), vehicle: saline with Tween-80) 94 % of control; (dose: 50.0 mg/kg/injection, schedule: Q04DX003 (ip), vehicle: saline with Tween-80) 91 % of control.
Take `CCOC(=O)C(Cc1ccc(N(CCCl)CCCl)cc1)NC(=O)C(N)CCC(=O)O` (configuration not stated): the T/C (dose: 5.0 mg/kg/injection, schedule: Q04DX003 (ip), vehicle: water) was 166 % of control; the T/C (dose: 6.25 mg/kg/injection, schedule: Q01DX009 (ip), vehicle: Klucel (hydroxypropylcellulose) (HPC)) was 169 % of control; the T/C (dose: 10.0 mg/kg/injection, schedule: Q04DX003 (ip), vehicle: water) was 161 % of control and 196 % of control; the T/C (dose: 12.5 mg/kg/injection, schedule: Q01DX009 (ip), vehicle: Klucel (hydroxypropylcellulose) (HPC)) is 202 % of control and 247 % of control; the T/C (dose: 20.0 mg/kg/injection, schedule: Q04DX003 (ip), vehicle: water) is 233 % of control and 321 % of control; the T/C (dose: 25.0 mg/kg/injection, schedule: Q01DX009 (ip), vehicle: Klucel (hydroxypropylcellulose) (HPC)) is 196 % of control. In addition, the T/C (dose: 40.0 mg/kg/injection, schedule: Q04DX003 (ip), vehicle: water) was 122 % of control and 348 % of control; the T/C under setting [5] was 92 % of control.
Regarding `O=C1Cc2cc3c(cc2C=C2CCCN12)OCO3`, the T/C runs as follows: (dose: 6.25 mg/kg/injection, schedule: Q01DX009 (ip), vehicle: water) 100 % of control; (dose: 12.5 mg/kg/injection, schedule: Q01DX009 (ip), vehicle: water) 100 % of control; (dose: 25.0 mg/kg/injection, schedule: Q01DX009 (ip), vehicle: water) 103 % of control; (dose: 50.0 mg/kg/injection, schedule: Q01DX009 (ip), vehicle: water) 106 % of control; (dose: 100.0 mg/kg/injection, schedule: Q01DX009 (ip), vehicle: water) 100 % of control.
Regarding `COc1ccc(CCNC(=O)c2sc3ccccc3c2Cl)cc1OC`, the T/C is 88 % of control under setting [10], 91 % of control under setting [11] and 99 % of control under setting [12].
`CCN(Cc1cccc(S(=O)(=O)[O-])c1)c1ccc(C(=C2C=CC(=[N+](CC)Cc3cccc(S(=O)(=O)O)c3)C=C2)c2ccccc2S(=O)(=O)O)cc1`: the T/C was 104 % of control (dose: 50.0 mg/kg/injection, schedule: Q01DX005 (ip), vehicle: saline); 96 % of control (dose: 100.0 mg/kg/injection, schedule: Q01DX005 (ip), vehicle: saline); 96 % of control (dose: 200.0 mg/kg/injection, schedule: Q01DX005 (ip), vehicle: saline).
As for `CN=C(N)NN=C(c1cccc(F)c1)c1cccc(F)c1`, the T/C was 100 % of control (dose: 25.0 mg/kg/injection, schedule: Q04DX002 (ip), vehicle: saline with Tween-80); 102 % of control (dose: 50.0 mg/kg/injection, schedule: Q04DX002 (ip), vehicle: saline with Tween-80); 100 % of control (dose: 100.0 mg/kg/injection, schedule: Q04DX002 (ip), vehicle: saline with Tween-80).
Take `CC12CCC(=O)OC1(CO)C([Se]c1ccccc1)CC2CC(N)=O` (configuration not stated): the T/C is, setting by setting: under setting [2], 93 % of control; under setting [3], 91 % of control; under setting [4], 91 % of control.
As for `Fc1cccc(Cl)c1CSC(=S)N1CCSCC1`, the T/C was 110 % of control (dose: 60.0 mg/kg/injection, schedule: Q01DX005 (ip), vehicle: saline with Tween-80); 105 % of control (dose: 120.0 mg/kg/injection, schedule: Q01DX005 (ip), vehicle: saline with Tween-80); 96 % of control (dose: 240.0 mg/kg/injection, schedule: Q01DX005 (ip), vehicle: saline with Tween-80).
For `C[Si](Cn1ccc(=O)[nH]c1=O)(c1ccccc1)c1ccccc1`, the T/C runs as follows: (dose: 100.0 mg/kg/injection, schedule: Q01DX001 (ip), vehicle: saline with Tween-80) 109 % of control; (dose: 200.0 mg/kg/injection, schedule: Q01DX001 (ip), vehicle: saline with Tween-80) 100 % of control; (dose: 400.0 mg/kg/injection, schedule: Q01DX001 (ip), vehicle: saline with Tween-80) 95 % of control.
As for `O=c1cc2n(c(=O)n1Cc1ccccc1)CCC2`, the T/C is 97 % of control (dose: 12.5 mg/kg/injection, schedule: Q01DX005 (ip), vehicle: saline with Tween-80); 99 % of control under setting [1]; 101 % of control under setting [2].
